A word on the melting point: it is the temperature, or range, at which the solid turns liquid.

For 63 compounds, melting point results are on record in a melting point compilation (Tetko et al.; mined from patent text by program, amines drawn as free bases though some values may be those of a salt).

SMILES strings stand for the structures.

`CCCCCN(CCC12CC3CC(CC(C3)C1)C2)C(=O)NCCc1ccncc1` gave a melting point of 107 to 118 °C. `COC1C=C(C)C(=O)CC(C)(C)C1OC(=O)c1ccc([N+](=O)[O-])c([N+](=O)[O-])c1` (stereo not drawn) came in with a melting point of 103 to 104 °C. Turning to `CN(c1ccccc1C=CC1=NCCC1)C1CCCCC1`, the melting point lay within 163 to 164 °C. In turn, `CN(C)C(=O)c1ccc2c(c1)C(c1ncnc3cc(OCCCN4CCOCC4)ccc13)C(=O)N2` (stereo not drawn) came in with a melting point of 168 to 169 °C. Compound `CCc1nc(C)[nH]c1I` gave a melting point of 156 to 159 °C. In turn, `CC12CCC(=O)C=C1CCCC2n1cc(-c2ccccc2)nn1` (stereo not drawn) showed a melting point of 158 to 159 °C. `COCC(O)c1nc2c(C(F)(F)F)cccc2c(O)c1C(=O)Nc1nccs1` (stereo not drawn) returned a melting point of 216 to 218 °C. Compound `O=C(CC(=O)OCc1ccc([N+](=O)[O-])cc1)CC1CC(=O)N1` (stereo not drawn) yielded a melting point of 50 to 52 °C. Regarding `Cn1nc2cccc(O)c2c1S(N)(=O)=O`, the melting point was in the range of 180 to 181 °C.

`CCC(CC)C(=O)Nc1ccco1` showed a melting point of 100 °C. In turn, `CN(C)CCc1[nH]c2ccccc2c1CC(N)=O` yielded a melting point of 114 to 117 °C. For `COC(=O)COc1ccc(C(=O)CN2CCN(c3ccncc3)CC2=O)cc1` the value was 164 to 165 °C; for `Nc1ccc(S(=O)(=O)c2ccnc(N3CCCC3)c2)cc1`, 186 to 187 °C.

Regarding `Cn1nnc(-c2cc(-c3ccc(F)cc3)sc2-c2ccc(F)cc2)n1`, the melting point was in the range of 150 to 152 °C. In the case of `Nc1c(Cl)cc(CC(=O)c2ccccc2)c2c1OCCO2` it was 133 to 135 °C; in that of `COc1cc2cc(C3=NNC(=O)CC3C)sc2cc1OC` (stereo not drawn), 204 to 206 °C; in that of `CCN(C(=O)C(=O)O)c1ccc2c(C)cc(=O)oc2c1`, 142 °C. Regarding `COc1cc(CCC(=O)C2CCCC2=O)cc(OS(=O)(=O)c2ccc(C)cc2)c1OC` (stereo not drawn), the melting point is 84 °C.

`O=c1c2ccccc2sc2cc(OCC(O)CCl)cc(O)c12` (stereo not drawn) gave a melting point of 151 °C. In turn, `CS(=O)(=O)c1c2ccccc2c(C=O)c2ccccc12` came in with a melting point of 216 to 217 °C. For the compound `O=C(NCC1(c2ccccc2)CCCC1)N1CCC(Sc2ccc(CCNC[C@H](O)COc3ccc(O)cc3)cc2)CC1`, the melting point was 132 °C.

As for `CC(=O)NCc1cc2n(n1)-c1ccc([N+](=O)[O-])cc1C(c1ccccc1)=NC2`, the melting point was in the range of 208 to 211 °C. For `CCC(C)Oc1ccc(OCCNC(=O)C2CC2)cc1` (stereo not drawn), the melting point is 65 to 68 °C. `CC(=NOCCOc1ccc(C[C@H](Oc2ccc(C(C)(C)C)cc2)C(=O)O)cc1)c1ccc(-c2ccccc2)cc1` registered a melting point of 141 to 143 °C. On to `CNC(=O)[C@H]1CN(c2cc(F)c3c(c2)CCC(=O)N3C)C(=O)O1`, for which the melting point lay within 264 to 265 °C. Turning to `CC(=O)Nc1ccc(Sc2c(-c3ccc(S(C)(=O)=O)cc3)cnn(CC(F)(F)F)c2=O)cc1`, the melting point was in the range of 191 to 193 °C. In turn, `COCOc1ccc(CCCOc2c(CC(=O)O)cccc2OC)c(Oc2ccc(C(F)(F)F)cn2)c1` came in with a melting point of 70 to 72 °C. `CN1CCN(C(=O)COC2c3ccccc3C(=O)N2c2ccc3ccc(Cl)nc3n2)CC1` (stereo not drawn) gave a melting point of 175 °C. The compound `COC(=O)C(O)C(Sc1ccc2ccccc2c1N)c1ccc(OC)cc1` (stereo not drawn) registered a melting point of 132 to 134 °C. In the case of `O=C(O)Cn1nnc(-c2ccc3c(c2)S(=O)(=O)c2ccccc2C3=O)n1` it was 194 to 195 °C; in that of `CCOC(=O)CCCCc1oc(-n2ccnc2C)nc1-c1ccc(Cl)cc1`, 93 to 94 °C; in that of `CC(=O)N[C@@H](C)COC1CCN(c2nc3cc(OCC4CCC4)ccc3o2)CC1`, 109 to 110 °C.

Consider `CC(C)NC(=O)c1nsc2ccc(-n3c(=O)cc(C(F)(F)F)n(C)c3=O)cc12`, for which the melting point fell in the range of 110 to 113 °C. For `NC(=O)c1cccc(-c2ccc3nnn(Cc4ccc5ncccc5c4)c3n2)c1` the value was 263 to 265 °C. For the compound `COC(=O)C1(C)Oc2ccc(Cl)cc2C(C)(c2ccccc2)O1` (stereo not drawn), the melting point came out at 134 °C. `Nc1cccc(OCc2ccc3ccccc3n2)c1` registered a melting point of 98 to 99 °C. In the case of `CNc1cc(CC(C)C)ccc1-c1ccccc1S(=O)(=O)Nc1onc(C)c1C` it was 125 to 128 °C; in that of `CCOc1cc2c(cc1OCC)CCC(C(=O)N1CCN(C(=O)c3cc(OC)c(OC)c(OC)c3)CC1)=C2`, 127 to 129 °C. `COc1cccc([C@H]2O[C@H](CC(=O)Nc3cc(CCC(=O)O)ccc3OC(C)C)C(=O)N(CC(C)(C)CO)c3ccc(Cl)cc32)c1OC` showed a melting point of 133 to 136 °C.

In the case of `O=S1(=O)NCN(C2CC2)c2ccc(Br)cc21`, the melting point is 178 to 179 °C. Turning to `CC(O)c1cccc(-c2cc3c(=O)n(NS(C)(=O)=O)c(=O)[nH]c3cc2C(F)(F)F)c1` (stereo not drawn), the melting point was 165 to 169 °C. The compound `Cc1ccc2onc(-c3ccc(Cl)cc3)c2c1` gave a melting point of 95 °C. In the case of `O=[N+]([O-])c1c(O)ccnc1O` it was above 230 °C. The compound `O=C(NCc1cc(C(F)(F)F)cc(C(F)(F)F)c1)c1ccccc1-c1ccccc1` gave a melting point of 86 to 87 °C. In turn, `CC(C(=O)O)c1ccc2c(c1)Sc1ncccc1CC2` (stereo not drawn) displayed a melting point of 161 to 162 °C.

`CC1CCC(=NC(=O)Nc2cccc(Cl)c2)N1C` (stereo not drawn) displayed a melting point of 129 to 130 °C. `Cc1nccn1-c1nc(-c2ccc(Cl)cc2)c(CCCn2cccn2)o1` returned a melting point of 129 to 130 °C. In the case of `CN(Cc1ccc(NC(=O)C2=Cc3cc(Br)ccc3CCC2)cc1)C1CCOCC1` it was 116 to 121 °C; in that of `ClCc1ccc(OCCOc2ccccc2)cc1`, 159 to 160 °C.

Regarding `C#Cc1cn(C2CC(OC(=O)C(C)(C)C)C(COC(=O)C(C)(C)C)O2)c(=O)[nH]c1=O` (stereo not drawn), the melting point came to 151 °C.

For `O=c1cc2c(nn1-c1ccccc1)-c1ccccc1CC2`, the melting point is 155 to 157 °C. `CC1CN(c2ccc(N3CC(CNC(=O)CC#N)OC3=O)cc2F)CCC1=CC#N` (stereo not drawn) had a melting point of 102 to 104 °C.

`Cn1c(CC(=O)O)ccc1C(=O)c1ccc([N+](=O)[O-])cc1` yielded a melting point of 192 to 195 °C.

The compound `CS(=O)(=O)Nc1cc2occ(NC(N)=O)c(=O)c2cc1Oc1ccccc1` came in with a melting point above 250 °C. For `CC1=C(CCO)c2cc(F)ccc2/C1=C\c1ccc(S(C)(=O)=O)cc1` the value was 118 °C.

In turn, `COc1cc2c(Nc3cccc(C)c3)ncnc2cc1OCCN1CCOCC1` registered a melting point of 168 to 170 °C. `Cc1ccc(N2CCN(S(=O)(=O)c3cccc(/C=C/C(=O)NO)c3)CC2C)cc1` (stereo not drawn) gave a melting point of 186 °C. With `CCC(=O)N1Cc2c(-c3noc(C4CC4)n3)ncn2-c2ccccc21`, the melting point is 175 to 176 °C.

`CCCCN(CCCC)c1ccc2cc(Cl)cnc2c1C#N` had a melting point of 112 °C.

For the compound `CCCCc1nc2ccccn2c(=O)c1-c1ccc(OS(=O)(=O)C(F)(F)F)cc1`, the melting point fell in the range of 106 to 108 °C. Take `O=C(c1ccc([N+](=O)[O-])cc1)N1Cc2cccn2-c2ccccc21`: the melting point lay within 174 to 178 °C. On to `CC(C)CS(=O)c1ccc(N)c([N+](=O)[O-])c1` (stereo not drawn), for which the melting point lay within 111 to 118 °C. As for `O=S(=O)(c1nc2c([nH]1)-c1ccc(F)cc1Oc1ccccc1-2)C(F)(F)C(F)F`, the melting point was in the range of 171 to 173 °C.
